The text below walks through data of ChEMBL document CHEMBL5465560, “Selectivity Literature for EUbOPEN Chemogenomic Library” (2024).

The target of experiment [1] is CDK3/Cyclin E (Homo sapiens) (UniProt P24864+Q00526). The experiment in a line: Selectivity interaction (LanthaScreen Eu Kinase Binding Assay) EUB0001632a CDK3. Type of experiment: protein-complex assay. The note with it: at 10 µM. (In TR-FRET formats the signal depends on donor and acceptor labels being close together.)
In experiment [2] the target is Tyrosine-protein kinase JAK1 (Homo sapiens, UniProt P23458). The experiment can be described thus: Selectivity interaction (Kinase panel (Z-LYTE Assay)) EUB0001632a JAK1. The note with it: at 10 µM.
The target in experiment [3] is Mitogen-activated protein kinase kinase kinase kinase 4 (Homo sapiens, UniProt O95819). The experiment in a line: Selectivity interaction (KinomeScan (DiscoverX)) EUB0000595a MAP4K4. The following applies: at 10 µM.
Chain of Mitogen-activated protein kinase kinase kinase kinase 4 (O95819 2-1239 limits assumed): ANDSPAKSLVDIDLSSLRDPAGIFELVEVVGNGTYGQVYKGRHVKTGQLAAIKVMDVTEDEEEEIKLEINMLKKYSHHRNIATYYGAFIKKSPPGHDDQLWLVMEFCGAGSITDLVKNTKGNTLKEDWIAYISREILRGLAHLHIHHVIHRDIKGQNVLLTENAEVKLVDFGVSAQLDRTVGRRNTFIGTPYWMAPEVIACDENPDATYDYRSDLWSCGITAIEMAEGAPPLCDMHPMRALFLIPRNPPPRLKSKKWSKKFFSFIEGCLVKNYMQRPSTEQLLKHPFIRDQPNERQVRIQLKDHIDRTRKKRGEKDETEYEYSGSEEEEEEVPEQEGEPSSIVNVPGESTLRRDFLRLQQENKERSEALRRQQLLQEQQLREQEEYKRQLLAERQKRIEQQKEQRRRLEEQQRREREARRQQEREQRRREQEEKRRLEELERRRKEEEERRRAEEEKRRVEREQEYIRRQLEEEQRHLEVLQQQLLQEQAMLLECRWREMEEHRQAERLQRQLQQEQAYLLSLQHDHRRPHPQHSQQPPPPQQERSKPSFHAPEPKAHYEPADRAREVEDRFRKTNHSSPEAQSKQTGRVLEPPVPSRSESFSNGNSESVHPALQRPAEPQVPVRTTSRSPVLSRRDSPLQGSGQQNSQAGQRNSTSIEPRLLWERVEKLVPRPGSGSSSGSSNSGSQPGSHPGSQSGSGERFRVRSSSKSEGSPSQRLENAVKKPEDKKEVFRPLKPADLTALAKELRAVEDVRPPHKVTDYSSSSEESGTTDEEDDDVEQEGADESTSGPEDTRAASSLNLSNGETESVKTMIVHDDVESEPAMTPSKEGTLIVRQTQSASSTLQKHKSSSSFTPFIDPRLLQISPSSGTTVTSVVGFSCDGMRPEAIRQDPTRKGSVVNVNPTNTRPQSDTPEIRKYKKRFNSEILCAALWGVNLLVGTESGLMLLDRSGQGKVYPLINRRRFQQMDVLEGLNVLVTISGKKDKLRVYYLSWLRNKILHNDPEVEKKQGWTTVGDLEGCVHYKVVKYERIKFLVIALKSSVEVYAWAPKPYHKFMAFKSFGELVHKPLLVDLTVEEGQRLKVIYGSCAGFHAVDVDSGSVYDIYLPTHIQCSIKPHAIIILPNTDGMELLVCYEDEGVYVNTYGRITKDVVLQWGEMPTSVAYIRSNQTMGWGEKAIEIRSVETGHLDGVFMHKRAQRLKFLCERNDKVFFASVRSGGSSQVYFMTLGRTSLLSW
The target of experiment [4] is TRAF2 and NCK-interacting protein kinase (Homo sapiens) (UniProt Q9UKE5). The experiment in a line: Selectivity interaction (KinomeScan (DiscoverX)) EUB0000666a TNIK. The note with it: at 10 µM.
Experiment [5] relates to Mast/stem cell growth factor receptor Kit (Homo sapiens), P10721 [V559D,V654A]. The note with it: at 10 µM.
Experiment [6] addresses Mitogen-activated protein kinase kinase kinase 14 (Homo sapiens) (UniProt Q99558). The experiment in a line: Selectivity interaction (Kinase panel (Invitrogen)) EUB0000639a MAP3K14. The note with it: at 200 nM.
For experiment [7], the target named is Cyclin-dependent kinase 17 (Homo sapiens) (UniProt Q00537). The experiment in a line: Selectivity interaction (ActivX KiNativ screen (kinase selectivity in THP-1 cell lysates)) EUB0000639a CDK17. Type of experiment: subcellular. The note with it: lysate, at 5 µM.
Chain of Cyclin-dependent kinase 17 (Homo sapiens) (Q00537 whole entry, looked up): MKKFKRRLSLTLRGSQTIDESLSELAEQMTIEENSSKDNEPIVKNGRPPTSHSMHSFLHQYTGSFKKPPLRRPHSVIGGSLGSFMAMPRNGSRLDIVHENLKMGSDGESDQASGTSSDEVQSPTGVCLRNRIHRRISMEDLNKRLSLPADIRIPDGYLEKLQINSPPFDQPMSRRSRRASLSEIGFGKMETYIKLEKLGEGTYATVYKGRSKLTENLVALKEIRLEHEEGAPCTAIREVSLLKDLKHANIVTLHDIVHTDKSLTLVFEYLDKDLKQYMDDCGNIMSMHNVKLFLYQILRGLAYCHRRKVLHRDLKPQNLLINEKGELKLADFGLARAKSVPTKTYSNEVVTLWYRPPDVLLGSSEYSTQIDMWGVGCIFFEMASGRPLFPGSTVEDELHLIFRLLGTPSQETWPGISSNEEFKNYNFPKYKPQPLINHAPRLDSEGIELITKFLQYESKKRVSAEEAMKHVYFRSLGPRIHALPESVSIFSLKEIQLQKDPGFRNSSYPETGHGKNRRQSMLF
In experiment [8] the target is Cyclin-dependent kinase 2 (Homo sapiens, UniProt P24941). The experiment can be described thus: Selectivity interaction (Kinase panel (literature)) EUB0001199aCl CDK2. The following applies: at 1 µM.
Experiment [9] deals with Serine/threonine-protein kinase PAK 4 (Homo sapiens, UniProt O96013). The experiment can be described thus: Selectivity interaction (ProQinase) EUB0000171b PAK4.
Chain of Serine/threonine-protein kinase PAK 4 (O96013 whole entry, looked up): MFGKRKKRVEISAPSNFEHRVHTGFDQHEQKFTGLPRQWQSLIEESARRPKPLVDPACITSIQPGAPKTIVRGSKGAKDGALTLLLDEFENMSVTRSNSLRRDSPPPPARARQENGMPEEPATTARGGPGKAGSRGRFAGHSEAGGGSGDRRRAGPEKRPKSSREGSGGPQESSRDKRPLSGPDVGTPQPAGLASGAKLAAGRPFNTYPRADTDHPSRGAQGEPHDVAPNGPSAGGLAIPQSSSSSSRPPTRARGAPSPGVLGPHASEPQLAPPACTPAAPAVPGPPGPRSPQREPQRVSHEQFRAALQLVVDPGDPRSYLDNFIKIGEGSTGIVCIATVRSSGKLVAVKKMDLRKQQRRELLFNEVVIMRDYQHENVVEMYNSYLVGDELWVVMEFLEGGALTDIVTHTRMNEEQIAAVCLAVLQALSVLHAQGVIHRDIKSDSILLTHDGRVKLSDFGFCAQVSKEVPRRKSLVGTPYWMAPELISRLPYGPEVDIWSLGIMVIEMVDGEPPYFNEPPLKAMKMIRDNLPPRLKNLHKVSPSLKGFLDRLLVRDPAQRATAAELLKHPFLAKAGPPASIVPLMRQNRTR
Experiment [10] relates to Serine/threonine-protein kinase B-raf (Homo sapiens), P15056 [V600E]. The experiment can be described thus: (§1) Selectivity interaction (ProQinase) EUB0000171b BRAF.
Chain of Serine/threonine-protein kinase B-raf (Homo sapiens), P15056 [V600E] (P15056 whole entry V600E): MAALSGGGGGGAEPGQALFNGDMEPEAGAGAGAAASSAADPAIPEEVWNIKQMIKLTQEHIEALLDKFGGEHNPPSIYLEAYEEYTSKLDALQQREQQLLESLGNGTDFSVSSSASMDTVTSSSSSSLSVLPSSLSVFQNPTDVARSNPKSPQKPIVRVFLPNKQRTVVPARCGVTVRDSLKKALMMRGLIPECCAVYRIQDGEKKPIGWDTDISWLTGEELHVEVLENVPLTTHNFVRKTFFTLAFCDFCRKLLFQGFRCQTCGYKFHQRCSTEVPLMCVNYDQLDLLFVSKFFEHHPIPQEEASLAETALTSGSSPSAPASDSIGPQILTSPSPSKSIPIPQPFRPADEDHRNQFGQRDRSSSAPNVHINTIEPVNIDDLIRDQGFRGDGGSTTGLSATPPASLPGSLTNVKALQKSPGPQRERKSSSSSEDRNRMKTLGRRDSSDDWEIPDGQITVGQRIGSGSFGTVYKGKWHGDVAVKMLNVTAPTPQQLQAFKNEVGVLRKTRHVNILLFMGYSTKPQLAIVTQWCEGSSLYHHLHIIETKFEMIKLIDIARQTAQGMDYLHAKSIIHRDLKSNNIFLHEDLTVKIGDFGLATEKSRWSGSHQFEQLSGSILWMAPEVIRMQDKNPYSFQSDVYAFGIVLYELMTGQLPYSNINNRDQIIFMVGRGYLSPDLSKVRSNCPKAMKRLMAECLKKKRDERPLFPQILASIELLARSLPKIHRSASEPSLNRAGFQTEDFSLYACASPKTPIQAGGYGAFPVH
The target in experiment [11] is Serine/threonine-protein kinase B-raf (Homo sapiens) (UniProt P15056). The description is as §1.
Chain of Serine/threonine-protein kinase B-raf (Homo sapiens) (P15056 whole entry): as the sequence (P15056 whole entry V600E) above, with E600V counted along it
Experiment [12] concerns the target Receptor tyrosine-protein kinase erbB-4 (Homo sapiens, UniProt Q15303). The experiment can be described thus: Selectivity interaction (Ambit KINOMEscan and KiNATiv profiling in Jurkat cells) EUB0000090b ERBB4. The note with it: at 1 µM. Type of experiment: cell-based.
For experiment [13], the target named is Serine/threonine-protein kinase 26 (Homo sapiens, UniProt Q9P289).
Experiment [14] concerns the target Maternal embryonic leucine zipper kinase (Homo sapiens) (UniProt Q14680). The experiment can be described thus: Selectivity interaction (Upstate Kinase Profiler service (Millipore)) EUB0000056c MELK. The following applies: at 1 µM.
The target of experiment [15] is MAP kinase-interacting serine/threonine-protein kinase 2 (Homo sapiens, UniProt Q9HBH9). The experiment can be described thus: Selectivity interaction (KinomeScan (DiscoverX)) EUB0000618a MKNK2. The following applies: at 10 µM.
Chain of MAP kinase-interacting serine/threonine-protein kinase 2 (Q9HBH9 whole entry, looked up): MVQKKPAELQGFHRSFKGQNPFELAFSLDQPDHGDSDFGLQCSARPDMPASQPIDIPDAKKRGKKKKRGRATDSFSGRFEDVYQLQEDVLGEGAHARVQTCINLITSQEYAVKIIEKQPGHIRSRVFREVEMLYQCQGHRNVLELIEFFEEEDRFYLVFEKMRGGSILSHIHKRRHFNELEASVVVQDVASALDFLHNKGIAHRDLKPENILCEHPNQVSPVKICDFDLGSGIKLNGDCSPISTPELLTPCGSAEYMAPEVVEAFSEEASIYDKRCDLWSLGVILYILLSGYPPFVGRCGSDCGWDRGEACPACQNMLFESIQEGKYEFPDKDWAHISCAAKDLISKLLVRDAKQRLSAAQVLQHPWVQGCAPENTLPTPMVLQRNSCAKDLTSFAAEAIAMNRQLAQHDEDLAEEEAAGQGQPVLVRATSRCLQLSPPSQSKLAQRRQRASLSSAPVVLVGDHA
Experiment [16] has as its target T1, Mitogen-activated protein kinase kinase kinase 13 (Homo sapiens) (UniProt O43283).
T1 sequence (whole entry): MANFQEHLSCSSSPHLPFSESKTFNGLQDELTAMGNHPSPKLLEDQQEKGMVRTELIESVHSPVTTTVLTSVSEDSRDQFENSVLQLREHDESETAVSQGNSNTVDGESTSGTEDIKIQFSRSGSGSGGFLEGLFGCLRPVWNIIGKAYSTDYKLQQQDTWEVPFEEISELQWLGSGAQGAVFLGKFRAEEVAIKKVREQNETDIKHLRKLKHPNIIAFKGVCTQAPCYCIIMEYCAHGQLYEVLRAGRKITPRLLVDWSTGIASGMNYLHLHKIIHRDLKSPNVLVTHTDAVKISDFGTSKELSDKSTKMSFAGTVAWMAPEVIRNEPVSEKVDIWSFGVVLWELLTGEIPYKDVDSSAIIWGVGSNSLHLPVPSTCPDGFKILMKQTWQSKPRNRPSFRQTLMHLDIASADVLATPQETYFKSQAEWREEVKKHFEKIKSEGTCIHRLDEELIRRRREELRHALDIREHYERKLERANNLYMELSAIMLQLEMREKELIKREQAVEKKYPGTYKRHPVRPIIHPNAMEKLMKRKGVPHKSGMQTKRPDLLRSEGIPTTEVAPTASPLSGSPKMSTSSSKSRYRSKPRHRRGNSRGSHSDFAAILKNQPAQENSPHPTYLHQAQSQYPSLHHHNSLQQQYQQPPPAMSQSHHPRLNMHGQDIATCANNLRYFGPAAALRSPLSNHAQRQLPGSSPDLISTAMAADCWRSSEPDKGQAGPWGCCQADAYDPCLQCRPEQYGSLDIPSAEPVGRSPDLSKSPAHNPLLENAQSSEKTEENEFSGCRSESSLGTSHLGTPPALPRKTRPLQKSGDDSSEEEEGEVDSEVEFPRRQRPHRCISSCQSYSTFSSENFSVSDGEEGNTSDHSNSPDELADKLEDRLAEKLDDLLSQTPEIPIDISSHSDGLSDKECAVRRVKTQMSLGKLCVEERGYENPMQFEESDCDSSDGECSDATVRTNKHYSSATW
The experiment can be described thus: Selectivity interaction (KinomeScan (DiscoverX)) EUB0000618a MAP3K13. The following applies: at 10 µM.

The target in experiment [17] is Platelet-derived growth factor receptor beta (Homo sapiens, UniProt P09619). The experiment can be described thus: Selectivity interaction (KinomeScan (DiscoverX)) EUB0000092b PDGFRB. The note with it: at 10 µM.
The target of experiment [18] is Phosphatidylinositol 4-kinase beta (Homo sapiens, UniProt Q9UBF8). The experiment in a line: Selectivity interaction (KinomeScan (DiscoverX)) EUB0001079a PI4KB. The note with it: at 1 µM.
The target in experiment [19] is Serine/threonine-protein kinase Nek4 (Homo sapiens) (UniProt P51957). The experiment in a line: Selectivity interaction (KinomeScan (DiscoverX)) EUB0001079a NEK4. The note with it: at 1 µM.

Chain of Maternal embryonic leucine zipper kinase (Homo sapiens) (Q14680 whole entry, looked up): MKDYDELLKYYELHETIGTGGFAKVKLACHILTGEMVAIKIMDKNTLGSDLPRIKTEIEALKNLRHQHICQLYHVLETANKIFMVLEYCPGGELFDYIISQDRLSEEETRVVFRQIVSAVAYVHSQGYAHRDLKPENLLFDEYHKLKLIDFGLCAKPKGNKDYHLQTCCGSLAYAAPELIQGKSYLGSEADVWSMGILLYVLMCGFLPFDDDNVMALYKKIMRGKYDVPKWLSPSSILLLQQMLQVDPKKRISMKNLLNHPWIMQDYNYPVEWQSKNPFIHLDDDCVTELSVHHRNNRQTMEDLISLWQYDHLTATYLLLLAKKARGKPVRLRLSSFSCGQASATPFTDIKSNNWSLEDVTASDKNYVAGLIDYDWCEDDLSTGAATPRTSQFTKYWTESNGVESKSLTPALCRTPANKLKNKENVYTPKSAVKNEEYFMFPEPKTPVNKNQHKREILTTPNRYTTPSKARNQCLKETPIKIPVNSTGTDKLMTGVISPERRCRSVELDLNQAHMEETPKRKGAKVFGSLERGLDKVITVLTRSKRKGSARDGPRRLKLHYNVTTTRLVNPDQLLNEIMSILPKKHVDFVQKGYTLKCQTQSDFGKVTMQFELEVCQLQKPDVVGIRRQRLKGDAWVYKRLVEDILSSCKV
Chain of CDK3/Cyclin E (Homo sapiens) (P24864 whole entry, looked up): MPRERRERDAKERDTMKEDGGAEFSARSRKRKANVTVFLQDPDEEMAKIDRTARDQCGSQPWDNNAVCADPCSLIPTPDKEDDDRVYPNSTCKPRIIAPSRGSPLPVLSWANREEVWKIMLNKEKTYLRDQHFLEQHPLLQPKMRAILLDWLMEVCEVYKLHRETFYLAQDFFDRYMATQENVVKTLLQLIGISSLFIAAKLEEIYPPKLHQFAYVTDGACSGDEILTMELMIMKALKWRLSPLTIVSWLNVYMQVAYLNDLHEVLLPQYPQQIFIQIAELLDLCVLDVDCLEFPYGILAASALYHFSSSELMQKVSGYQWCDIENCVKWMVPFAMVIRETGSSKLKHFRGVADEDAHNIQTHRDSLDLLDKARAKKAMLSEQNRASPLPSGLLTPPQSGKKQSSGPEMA
Chain of CDK3/Cyclin E (Homo sapiens) (Q00526 whole entry, looked up): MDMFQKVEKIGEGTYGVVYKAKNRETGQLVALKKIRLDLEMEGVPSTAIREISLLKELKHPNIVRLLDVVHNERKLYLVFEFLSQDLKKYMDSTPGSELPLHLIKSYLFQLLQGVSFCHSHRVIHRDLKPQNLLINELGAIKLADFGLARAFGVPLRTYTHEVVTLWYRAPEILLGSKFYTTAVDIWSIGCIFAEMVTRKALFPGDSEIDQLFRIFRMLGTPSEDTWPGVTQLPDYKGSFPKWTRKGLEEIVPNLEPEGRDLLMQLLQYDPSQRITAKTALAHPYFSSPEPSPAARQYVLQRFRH

Turning to `Cn1cc(-n2cnc3c(NCc4nc5cc(Cl)c(Cl)cc5[nH]4)nc(N4CCOCC4)nc32)cn1`, the % of inhibition in [1] is -151%. Besides, the % of control in experiment [2] was -3.66%.

Consider `COCC(=O)NC/C=C/c1ccc2ncnc(Nc3ccc(Oc4ccc(C)nc4)c(C)c3)c2c1` [CP-724714], for which the % of control in experiment [3] came out at 97%. For `O=C(NOC[C@H](O)CO)c1ccc(F)c(F)c1Nc1ccc(I)cc1F`, the % of control in experiment [4] turned out to be 100%. For the molecule `Cc1cc([C@@H](C)Nc2ccccc2C(=O)O)c2nc(N3CCOCC3)cc(=O)n2c1` [AZD-6482], the % of control in experiment [5] is 96%. For `CC[C@@H]1[C@H](F)C(=O)N[C@@H]1COc1nccc2cc(C(N)=O)c(OC)cc12` [ZIMLOVISERTIB], the values for the % of inhibition in experiment [6] and in experiment [7] were -0.0527% and 6.5%, respectively. Consider `CN1Cc2nccc(-c3cn(C)nc3-c3ccc(F)cc3)c2C1=O`, for which the % of inhibition in experiment [8] came out at 4%.

As to `C=CC(=O)Nc1cccc(C(=O)Nc2ccc(Nc3cc(-c4[nH]c(SC)nc4C)ccn3)cc2)c1`, the % of control was 92% in experiment [9] (at 1 µM); 76% in experiment [9] (at 5 µM); 110% in experiment [10] (at 1 µM); 113% in experiment [10] (at 5 µM); 96% in experiment [11] (at 1 µM); 82% in experiment [11] (at 5 µM). Take `CN(C)C/C=C/C(=O)Nc1ccc(C(=O)N2CCCC(Nc3ncc(Cl)c(-c4c[nH]c5ccccc45)n3)C2)cc1` (configuration not stated): in experiment [12], the % of control was determined as 96%. In general, IC50 refers to the concentration that inhibits the measured activity by half. Read a high IC50 as a need for much substance. In the case of `CCc1cccc(CC)c1NC(=O)c1nn(C)c2c1CCc1cnc(Nc3ccc(C(=O)NC4CCN(C)CC4)cc3OC(F)(F)F)nc1-2`, in [13], the concentration for half-maximal inhibition (IC50) was above 10 µM. Turning to `Cc1ccc(-c2ccc3c(ccc4sc5c(c43)NC[C@@H](C)NC5=O)n2)cn1`, the % of inhibition in [14] turned out to be 10%. `O[C@H]1CC[C@H](Nc2ncc3nc(Nc4c(F)cc(F)cc4F)n([C@H]4CCOC4)c3n2)CC1`: the % of control in [15] and in [16] was 100% in each case. Consider `CCC(=O)N1CCN(c2ccc(-n3c(=O)ccc4cnc5ccc(-c6cnc7ccccc7c6)cc5c43)cc2C(F)(F)F)CC1`, for which, in [17], the % of control was 24%. `Nc1cnc(N2CCc3cc(S(=O)(=O)Nc4c(F)cc(Cl)cc4F)cc(N4CCCC4=O)c32)nc1` [TP-020n]: the % of control in experiment [18] worked out at 93%; in [19], 97%.
